Results: US11319289B2, “5-hydroxy pyridine-based compound for use as P2X1 and P2X3 receptor antagonist and pharmaceutical composition comprising same” (GWANGJU INSTITUTE OF SCIENCE AND TECHNOLOGY, priority 2017, dated 2022)
Read-outs that look alike come from different tables or passages of the source.

Assays:
Type in all cases: cell-based
[1] = biological target: T1, human P2X7 receptor (hP2X7) (Homo sapiens, UniProt Q99572); test: Ethidium bromide accumulation assay in hP2X7-expressing HEK293 cells; conditions: for hP2X7 % inhibition of ethidium bromide accumulation: 10 μM compound with BzATP
T1 construct: expressed in transfected cells
T1 sequence (Q99572 1-595): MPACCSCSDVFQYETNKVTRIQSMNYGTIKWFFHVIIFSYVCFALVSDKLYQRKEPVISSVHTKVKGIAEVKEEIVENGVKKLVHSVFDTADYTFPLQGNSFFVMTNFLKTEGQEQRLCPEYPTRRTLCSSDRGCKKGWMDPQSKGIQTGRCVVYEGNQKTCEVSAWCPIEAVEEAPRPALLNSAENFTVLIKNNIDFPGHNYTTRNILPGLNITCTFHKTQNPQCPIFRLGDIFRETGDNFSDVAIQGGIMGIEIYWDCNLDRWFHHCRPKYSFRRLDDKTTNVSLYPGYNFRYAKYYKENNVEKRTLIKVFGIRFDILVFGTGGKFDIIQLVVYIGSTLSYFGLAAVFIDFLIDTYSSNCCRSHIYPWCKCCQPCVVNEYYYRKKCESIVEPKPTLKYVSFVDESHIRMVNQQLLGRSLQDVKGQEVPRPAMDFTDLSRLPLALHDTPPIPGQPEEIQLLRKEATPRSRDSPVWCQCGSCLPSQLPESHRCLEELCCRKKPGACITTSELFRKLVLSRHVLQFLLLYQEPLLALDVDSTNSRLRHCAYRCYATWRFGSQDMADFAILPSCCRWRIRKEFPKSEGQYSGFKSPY
Protocol: 1-2. Ethidium Bromide Accumulation Assay in hP2X-Expressing HEK293 Cells
HEK293 cells that are stably transfected with the human P2X7 receptor (P2X7R) were kept under a humidified atmosphere of 5% CO2 at 37° C. in DMEM supplemented with 10% (v/v) FBS, 2 mM L-glutamine and antibiotics (50 U/mL penicillin and 50 μg/ml streptomycin). BzATP-induced pore formation was measured using a fluorescence plate reader by measuring cellular absorption of ethidium in the hP2X7-expressing HEK293 cells. The hP2X7-expressing HEK293 cells were washed once with an appropriate assay buffer, and the buffer was also removed before subsequent analysis. All studies were performed at room temperature and the final assay volume was 100 μL. The cells were resuspended at 2.5×10^6 cells/mL in assay buffers consisting of 10 mM HEPES, 5 mM N-methyl-D-glucamine, 5.6 mM KCl, 10 mM D-glucose and 0.5 mM CaCl2 (pH 7.4) and supplemented with 280 mM sucrose or 140 mM NaCl.
In order to determine the antagonistic activity of the 5-hydroxyl-pyridine derivatives of the present invention and the reference compound (AZD9056), these compounds were added to the cells at a concentration of 10 μM with BzATP without pre-incubation. The cells were incubated for 2 hours under a humidified atmosphere of 5% CO2 at 37° C., and the absorption of ethidium dye was observed by measuring fluorescence with a Bio-Tek instrument FL600 fluorescent plate reader (excitation wavelength of 530 nm and emission wavelength of 590 nm). The results are expressed as a percentage relative to the maximum cumulative amount of ethidium bromide when stimulated with BzATP alone.
(§1) In order to investigate the structure-activity relationship (SAR) of the compounds synthesized in the present invention, the antagonistic activity was evaluated by a two-electrode voltage clamp (TEVC) assay in Xenopus oocytes expressing the recombinant mP2X1 or hP2X3, respectively. The hP2X7R antagonistic activity was assessed using an ethidium ion accumulation assay in human HEK293 cells stably expressing the recombinant human P2X7R.

[2] = biological target: T2, mouse P2X1 receptor (mP2X1) (Mus musculus, UniProt P51576); test: Two-electrode voltage clamp assay, recombinant mP2X1 receptor in Xenopus oocytes; conditions: for inhibition at 10 µM / mP2X1 % inhibitory effect at 10 μM: 10 μM compound, mean±SEM n≥3 (footnote c); for inhibition at 10 µM: read-out: mP2X1 % inhibitory effect at 10 μM
T2 construct: expressed in transfected cells; host or cells: Xenopus oocytes (cRNA microinjection)
T2 sequence (P51576 1-399): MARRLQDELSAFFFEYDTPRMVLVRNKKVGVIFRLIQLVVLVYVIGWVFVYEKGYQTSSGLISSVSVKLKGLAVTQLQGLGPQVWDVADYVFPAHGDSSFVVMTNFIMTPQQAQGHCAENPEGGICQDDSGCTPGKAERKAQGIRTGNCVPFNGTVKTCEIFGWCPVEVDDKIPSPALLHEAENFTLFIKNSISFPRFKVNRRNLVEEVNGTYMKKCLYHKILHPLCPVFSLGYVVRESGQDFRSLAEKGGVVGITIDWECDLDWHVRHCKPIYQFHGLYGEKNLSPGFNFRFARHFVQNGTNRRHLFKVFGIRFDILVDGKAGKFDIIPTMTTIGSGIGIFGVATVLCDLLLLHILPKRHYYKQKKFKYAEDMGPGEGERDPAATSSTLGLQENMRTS
Protocol: (§2) 1-1. Two-Electrode Voltage Clamp Assay for Recombinant mP2X1 and hP2X3 Receptors
(§3) Xenopus oocytes were isolated and incubated with 270 U/mg of collagenase at 23 to 24° C. for 1.5 hours. Defolliculated oocytes were kept in Barth's solution at 18° C. After 1 day, the defolliculated oocytes were each microinjected cytosolically with mP2X1 and human P2X3 receptor cRNA ([…], 1 μg/mL), incubated for 24 hours at 18° C. in Barth's solution. The cRNA-injected oocytes were kept for 12 days at 4° C. ATP-activated membrane currents (Vh=−70 mV) were recorded from the cRNA-injected oocytes using the two-electrode voltage clamp technique (Axoclamp 2B amplifier). Voltage recording ([…] tip resistance) and current-recording microelectrodes (5 MΩ tip resistance) were filled with 3.0 M KCl. Oocytes were placed in an electrophysiological chamber continuously superfused with Ringer's solution (5 mL/min, at 18° C.) containing 110 mM NaCl, 2.5 mM KCl, 5 mM HEPES and 1.8 mM BaCl2, with pH adjusted to 7.5. To induce an evoked current, 2 μM ATP was superfused for 60 to 120 seconds and then washed for 20 min. For data analysis, the ATP-evoked current was normalized at pH 7.5. The compounds were introduced to the fixed oocytes 20 minutes prior to ATP exposure in the electrophysiological chamber. IC50 values (the concentration of the compound required to inhibit the ATP response by 50%) were determined by Hill plots designed using the Chemical Formula: log(I/Imax−1), where I is the current evoked by ATP in the presence of an antagonist. Data are presented as mean±SEM (n≥3) from different batches of oocytes.
as §1

[3] = biological target: T3, human P2X3 receptor (hP2X3) (Homo sapiens, UniProt P56373); test: Two-electrode voltage clamp assay, recombinant hP2X3 receptor in Xenopus oocytes; conditions: for IC50: 2 μM ATP-evoked current, mean±SEM n≥3 (footnote d); for IC50 / inhibition at 1 µM: Xenopus oocytes; for selectivity for hP2X3R to mP2X1R: hP2X3R versus mP2X1R; for inhibition at 1 µM: 1 μM compound, 2 μM ATP, mean±SEM n≥3 (footnote b), read-out: hP2X3 % inhibitory effect at 1 μM
T3 construct: expressed in transfected cells; host or cells: Xenopus oocytes (cRNA microinjection)
T3 sequence (P56373 1-397): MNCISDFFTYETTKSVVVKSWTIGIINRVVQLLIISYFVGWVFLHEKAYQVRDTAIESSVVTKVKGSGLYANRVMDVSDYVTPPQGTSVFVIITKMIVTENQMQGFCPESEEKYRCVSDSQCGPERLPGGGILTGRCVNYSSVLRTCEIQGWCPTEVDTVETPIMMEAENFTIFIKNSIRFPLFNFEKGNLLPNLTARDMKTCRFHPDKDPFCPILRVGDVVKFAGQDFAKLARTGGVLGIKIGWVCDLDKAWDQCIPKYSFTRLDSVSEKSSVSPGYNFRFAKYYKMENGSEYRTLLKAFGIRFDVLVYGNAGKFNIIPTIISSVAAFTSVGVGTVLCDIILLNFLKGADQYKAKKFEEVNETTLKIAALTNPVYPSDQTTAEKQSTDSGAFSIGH
Protocol: as §2, §3, §1

Row | IC50 [3] | hP2X7 % inhibition of ethidium bromide accumulation [1] | inhibition at 10 µM ([2]; 2 μM ATP) | mP2X1 % inhibitory effect at 10 μM ([2]; 2 μM ATP) | SMILES | other results
1 | 287 ± 87 nM | inactive |  | Inactive^c | COc1ccc(CCc2nc(CCSC)c(O)c(C(=O)O)c2C(=O)O)cc1 [Compound 13k, 5-Hydroxy-2-(4-methoxyphenethyl)-6-(2-(methylthio)ethyl)pyridine-3,4-dicarboxylic acid] | 
2 | 721 ± 96 nM | Inactive |  | Inactive^c | COc1ccc(CCc2nc(CCS(C)(=O)=O)c(O)c(C(=O)O)c2C(=O)O)cc1 [Compound 13l, 5-Hydroxy-2-(4-methoxyphenethyl)-6-(2-(methylsulfonyl)ethyl)pyridine-3,4-dicarboxylic acid] | 
3 |  | Inactive |  | Inactive^c | COc1ccc(CCc2nc(C)c(O)c(C#N)c2C(=O)O)cc1 [Compound 16, 4-Cyano-5-hydroxy-2-(4-methoxyphenethyl)-6-methylnicotinic acid] | inhibition at 1 µM [3]: 33.3%
4 |  | inactive |  | inactive^c | CCCc1nc(Cc2cccc(Oc3ccccc3)c2)c(C)c(CCC(=O)O)c1O [Compound 37, 3-(3-Hydroxy-5-methyl-6-(3-phenoxybenzyl)-2-propylpyridin-4-yl)propanoic acid] | 

The remaining lines, values behind:

Row | SMILES | IC50 [3] | hP2X7 % inhibition of ethidium bromide accumulation [1] | inhibition at 10 µM ([2]; 2 μM ATP) | mP2X1 % inhibitory effect at 10 μM ([2]; 2 μM ATP) | other results
5 | O=C(NCC12CC3CC(CC(C3)C1)C2)c1cc(CCCNCCCO)ccc1Cl [AZD9056, reference compound] |  |  |  |  | IC50 ([1]; ethidium accumulation, read-out: hP2X7 (reference compound, value in nM)): 0.23 ± 0.11 nM
6 | COc1ccc(CCc2ncc(O)c(C(=O)O)c2C(=O)O)cc1 [Compound 13a, 5-Hydroxy-2-(4-methoxyphenethyl)pyridine-3,4-dicarboxylic acid] | 561 ± 99 nM | Inactive |  |  | IC50 ([2]; 2 μM ATP-evoked current, mean±SEM n≥3 (footnote d), read-out: mP2X1 IC50): 236000 ± 78000 pM; selectivity for hP2X3R to mP2X1R [3]: non-selective
7 | COc1ccc(CCc2nc(C)c(O)c(C(=O)O)c2C(=O)O)cc1 [Compound 13b, 5-Hydroxy-2-(4-methoxyphenethyl)-6-methylpyridine-3,4-dicarboxylic acid] |  | Inactive |  |  | selectivity for hP2X3R to mP2X1R [3]: non-selective
8 | CCc1nc(CCc2ccc(OC)cc2)c(C(=O)O)c(C(=O)O)c1O [Compound 13c, 6-Ethyl-5-hydroxy-2-(4-methoxyphenethyl)pyridine-3,4-dicarboxylic acid] | 550 ± 93 nM | inactive | 48.1 ± 8.8% |  | 
9 | CCCCc1nc(CCc2ccc(OC)cc2)c(C(=O)O)c(C(=O)O)c1O [Compound 13e, 6-Butyl-5-hydroxy-2-(4-methoxyphenethyl)pyridine-3,4-dicarboxylic acid] | 95 nM | inactive | 41.9 ± 9.1% |  | selectivity for hP2X3R to mP2X1R [3]: about 100 fold
10 | COc1ccc(CCc2nc(C(C)C)c(O)c(C(=O)O)c2C(=O)O)cc1 [Compound 13f, 5-Hydroxy-6-isopropyl-2-(4-methoxyphenethyl)pyridine-3,4-dicarboxylic acid] | 466 nM | inactive | 37.3 ± 8.2% |  | 
11 | COc1ccc(CCc2nc(CC(C)C)c(O)c(C(=O)O)c2C(=O)O)cc1 [Compound 13g, 5-Hydroxy-6-isobutyl-2-(4-methoxyphenethyl)pyridine-3,4-dicarboxylic acid] |  | inactive | 23.4 ± 0.8% |  | inhibition at 1 µM [3]: 32%
12 | COc1ccc(CCc2nc(Cc3ccccc3)c(O)c(C(=O)O)c2C(=O)O)cc1 [Compound 13h, 6-Benzyl-5-hydroxy-2-(4-methoxyphenethyl)pyridine-3,4-dicarboxylic acid] | 751 ± 83 nM | Inactive |  | Inactive^c | 
13 | COc1ccc(CCc2nc(CCc3ccccc3)c(O)c(C(=O)O)c2C(=O)O)cc1 [Compound 13i, 5-Hydroxy-2-(4-methoxyphenethyl)-6-phenethylpyridine-3,4-dicarboxylic acid] | 742 ± 73 nM | inactive |  | Inactive^c | 
14 | COc1ccc(CCc2nc(C(=O)O)c(O)c(C(=O)O)c2C(=O)O)cc1 [Compound 13j, 3-Hydroxy-6-(4-methoxyphenethyl)pyridine-2,4,5-tricarboxylic acid] | 319 ± 81 nM | Inactive | 36.7 ± 2.8% |  | 
15 | O=C(Nc1cc(C(=O)Nc2ccc(S(=O)(=O)O)cc2S(=O)(=O)O)cc(C(=O)Nc2ccc(S(=O)(=O)O)cc2S(=O)(=O)O)c1)Nc1cc(C(=O)Nc2ccc(S(=O)(=O)O)cc2S(=O)(=O)O)cc(C(=O)Nc2ccc(S(=O)(=O)O)cc2S(=O)(=O)O)c1 [NF-449, reference compound] |  |  |  |  | IC50 ([2]; 2 μM ATP, read-out: mP2X1 (positive control, value in pM)): 307 ± 93 pM
